# Source: patent US20230286970A1, “NOVEL OXADIAZOLE-BASED SELECTIVE HDAC6 INHIBITORS” (ITALFARMACO S.P.A., priority 2020, published 2023)
# Experiments:
# [1] = Stability in human plasma; conditions: after 4 hours, 37° C.
# [2] = Stability to Phase I metabolism in human S9 liver fraction; conditions: after 90 minutes, 37° C.
# Description: Test compounds were incubated in rat and human liver S9 fraction at 37° C. up to 90 minutes in order to evaluate their stability to Phase I metabolism by hepatic enzymes. Each test compound was incubated at μM concentration (50 μM when the samples were analysed by UV/HPLC, 1 or 2 μM when the samples were analysed by LC-MS/MS) with S9 fraction (protein content 2 mg/m L) in 100 mM phosphate buffer (pH 7.4), 3.3 mM MgCl2 and 1.3 mM NADPH for 0, 10, 30, 60 and 90 minutes at 37° C. in a thermostated oscillating bath. The reaction was stopped placing samples on ice bath and adding acidified acetonitrile. After centrifugation (10 minutes at 14000 rpm) an aliquot of the supernatant was diluted with water, filtered with 0.45 μm regenerated cellulose syringe filters and injected in HPLC-UV or in LC-MS/MS. The percentage of the remaining amount at the various incubation times with respect to the initial amount were calculated.
# recombinant human HDAC1 = recombinant human HDAC1 (Homo sapiens (Human), UniProt Q13547); experiment: Enzymatic screening, HDAC1 inhibition (fluorogenic FdL_G substrate); type: biochemical
# recombinant human HDAC1, sequence (Q13547 whole entry): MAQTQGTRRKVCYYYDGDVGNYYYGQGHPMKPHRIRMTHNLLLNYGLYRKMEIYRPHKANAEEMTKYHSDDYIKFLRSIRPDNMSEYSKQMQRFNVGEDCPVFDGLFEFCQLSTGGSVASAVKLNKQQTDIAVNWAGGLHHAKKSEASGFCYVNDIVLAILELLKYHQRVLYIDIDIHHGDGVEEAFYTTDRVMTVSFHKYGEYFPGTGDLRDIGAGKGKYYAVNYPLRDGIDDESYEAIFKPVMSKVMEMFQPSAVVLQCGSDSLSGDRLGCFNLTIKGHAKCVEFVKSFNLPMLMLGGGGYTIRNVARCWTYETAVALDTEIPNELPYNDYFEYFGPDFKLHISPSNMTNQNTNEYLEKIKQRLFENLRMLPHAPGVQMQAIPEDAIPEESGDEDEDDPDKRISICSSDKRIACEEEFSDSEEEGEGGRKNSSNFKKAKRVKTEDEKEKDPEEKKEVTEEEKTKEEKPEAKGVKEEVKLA
# In short: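 Recombinant human HDAC1 inhibition was measured fluorometrically using the FLUOR DE LYS-Green (FdL_G) substrate. Compounds at 8 doses (1% DMSO final) in Tris-HCl pH 8 buffer with NaCl, Tween-20 and glycerol were preincubated in triplicate with enzyme and 1 mg/mL BSA, then given substrate. Developer I plus 2 μM TSA was added, and fluorescence read after 25 minutes in the dark.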
# [3] = Stability to Phase I metabolism in rat S9 liver fraction; conditions: after 90 minutes, 37° C.
# Stability in rat plasma = conditions: after 4 hours, 37° C.
# Description: In order to evaluate the stability to circulating enzymes, test compounds were incubated in human and rat plasma at 37° C. in a thermostated oscillating bath. Each test compound was incubated at μM concentration (50 μM when the samples were analysed by UV/HPLC, 1 or 2 μM when the samples were analysed by LC-MS/MS) for 0, 15, 30 minutes and 1, 2 and 4 hours. The reaction was stopped placing samples on ice bath and adding acidified acetonitrile. After centrifugation (10 minutes at 14000 rpm) an aliquot of the supernatant was diluted with water, filtered with 0.45 μm regenerated cellulose syringe filters and injected in HPLC-UV or in LC-MS/MS. The percentage of the remaining amount at the various incubation times with respect to the initial amount were calculated. The half-life in plasma was also calculated.
# recombinant human HDAC6 = recombinant human HDAC6 (Homo sapiens (Human), UniProt Q9UBN7); experiment: Enzymatic screening, HDAC6 inhibition (fluorogenic FdL_G substrate); type: biochemical
# recombinant human HDAC6, sequence (Q9UBN7 whole entry): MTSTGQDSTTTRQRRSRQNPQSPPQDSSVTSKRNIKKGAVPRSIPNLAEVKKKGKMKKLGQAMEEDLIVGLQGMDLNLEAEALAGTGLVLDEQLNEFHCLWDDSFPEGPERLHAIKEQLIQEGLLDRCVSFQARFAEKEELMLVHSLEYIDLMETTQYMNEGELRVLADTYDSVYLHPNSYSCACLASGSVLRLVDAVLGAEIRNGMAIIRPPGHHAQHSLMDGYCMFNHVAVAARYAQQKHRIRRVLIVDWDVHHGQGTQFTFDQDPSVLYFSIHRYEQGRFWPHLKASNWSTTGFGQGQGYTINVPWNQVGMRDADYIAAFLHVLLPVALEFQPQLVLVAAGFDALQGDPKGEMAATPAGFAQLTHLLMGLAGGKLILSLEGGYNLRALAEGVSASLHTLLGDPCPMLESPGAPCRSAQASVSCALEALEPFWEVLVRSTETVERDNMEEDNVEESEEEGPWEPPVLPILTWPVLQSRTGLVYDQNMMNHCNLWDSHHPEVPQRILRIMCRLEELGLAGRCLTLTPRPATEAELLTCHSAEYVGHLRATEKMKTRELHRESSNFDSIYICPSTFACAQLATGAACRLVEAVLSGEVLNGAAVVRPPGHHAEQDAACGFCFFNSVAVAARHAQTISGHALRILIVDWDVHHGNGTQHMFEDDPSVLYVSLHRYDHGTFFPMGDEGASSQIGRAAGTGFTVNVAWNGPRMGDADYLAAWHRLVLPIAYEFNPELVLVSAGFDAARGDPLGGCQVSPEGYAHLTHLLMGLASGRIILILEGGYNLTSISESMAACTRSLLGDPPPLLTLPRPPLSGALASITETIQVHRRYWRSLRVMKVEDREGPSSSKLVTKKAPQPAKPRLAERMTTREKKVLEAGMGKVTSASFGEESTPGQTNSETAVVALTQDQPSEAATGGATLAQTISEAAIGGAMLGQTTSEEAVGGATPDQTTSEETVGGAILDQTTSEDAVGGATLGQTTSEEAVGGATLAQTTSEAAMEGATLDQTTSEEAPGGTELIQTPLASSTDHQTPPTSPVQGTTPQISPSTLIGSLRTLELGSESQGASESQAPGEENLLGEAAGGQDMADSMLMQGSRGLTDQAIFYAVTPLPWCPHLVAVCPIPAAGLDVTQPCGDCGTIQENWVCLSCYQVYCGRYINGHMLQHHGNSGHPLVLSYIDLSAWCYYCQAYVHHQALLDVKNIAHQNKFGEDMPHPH
# In short: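 Enzyme was preincubated with compound (8 doses, triplicate, 1% DMSO) in 25 mM Tris-HCl pH 8, 130 mM NaCl, 0.05% Tween-20, 10% glycerol, with BSA. A FLUOR DE LYS-Green substrate was then added, and fluorescence was read after developer plus 2 μM TSA.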
SMILES,residual percentage in HUMAN PLASMA [1] [%],residual percentage in HUMAN S9 FRACTION [2] [%],IC50 (recombinant human HDAC1) [µM],residual percentage in RAT S9 FRACTION [3] [%],residual percentage in RAT PLASMA (Stability in rat plasma) [%],IC50 (recombinant human HDAC6) [µM]
"Nc1ccc(-c2cnn(Cc3ccc(-c4nnc(C(F)F)o4)cc3)c2)cn1 [compound 211, 5-(1-(4-(5-(difluoromethyl)-1,3,4-oxadiazol-2-yl)benzyl)-1H-pyrazol-4-yl)pyridin-2-amine]",91,63,> 200,80,89,0.147
O=C1Nc2ccc(-c3cn(Cc4ccc(-c5nnc(C(F)F)o5)cn4)nn3)cc2NC12CCNCC2 [compound 36],78,89,> 200,94,76,0.016
"Nc1ccc(-c2cn(Cc3cc(F)c(-c4nnc(C(F)F)o4)cc3F)nn2)cn1 [compound 39, 5-(1-(4-(5-(difluoromethyl)-1,3,4-oxadiazol-2-yl)-2,5-difluorobenzyl)-1H-1,2,3-triazol-4-yl)pyridin-2-amine]",83,100,> 200,96,71,0.018
"Nc1ccc(-c2nnc(Cc3ccc(-c4nnc(C(F)F)o4)cc3)o2)cn1 [Compd. 218, 5-(5-(4-(5-(difluoromethyl)-1,3,4-oxadiazol-2-yl)benzyl)-1,3,4-oxadiazol-2-yl)pyridin-2-amine]",92,86,> 200,89,69,0.156
"Cc1ncc(-c2nnn(Cc3ccc(-c4nnc(C(F)F)o4)cc3)n2)cc1N [compound 65, 5-(2-(4-(5-(difluoromethyl)-1,3,4-oxadiazol-2-yl)benzyl)-2H-tetrazol-5-yl)-2-methylpyridin-3-amine]",94,99,> 200,35,76,0.028
"Nc1ccc(-c2nnn(Cc3ccc(-c4nnc(C(F)F)o4)cc3)n2)cn1 [compound 64, 5-(2-(4-(5-(difluoromethyl)-1,3,4-oxadiazol-2-yl)benzyl)-2H-tetrazol-5-yl)pyridin-2-amine]",69,103,> 200,9,70,0.028
"O=C(c1cccc(-c2nnn(Cc3ccc(-c4nnc(C(F)F)o4)cn3)n2)c1)N1CCOCC1 [compound 69, (3-(2-((5-(5-(difluoromethyl)-1,3,4-oxadiazol-2-yl)pyridin-2-yl)methyl)-2H-tetrazol-5-yl)phenyl)(morpholino)methanone]",79,97,> 200,83,79,0.03

# Second part, the compound after the results:
residual percentage in HUMAN PLASMA [1] [%],residual percentage in HUMAN S9 FRACTION [2] [%],IC50 (recombinant human HDAC1) [µM],residual percentage in RAT S9 FRACTION [3] [%],residual percentage in RAT PLASMA (Stability in rat plasma) [%],IC50 (recombinant human HDAC6) [µM],SMILES
80,81,> 200,69,71,0.015,"FC(F)c1nnc(-c2ccc(Cn3cc(-c4ccc(NC5=NCCN5)cc4)cn3)cc2)o1 [compound 269, N-(4-(1-(4-(5-(difluoromethyl)-1,3,4-oxadiazol-2-yl)benzyl)-1H-pyrazol-4-yl)phenyl)-4,5-dihydro-1H-imidazol-2-amine]"
84,99,> 200,71,81,0.041,"Cc1ncccc1-c1cn(Cc2c(F)cc(-c3nnc(C(F)F)o3)cc2F)nn1 [compound 105, 2-(3,5-difluoro-4-((4-(2-methylpyridin-3-yl)-1H-1,2,3-triazol-1-yl)methyl)phenyl)-5-(difluoromethyl)-1,3,4-oxadiazole]"
80,93,> 200,92,94,0.019,"O=C(Nc1cccc(-c2cn(Cc3ccc(-c4nnc(C(F)F)o4)cn3)cn2)c1)N1CCOCC1 [compound 264, N-(3-(1-((5-(5-(difluoromethyl)-1,3,4-oxadiazol-2-yl)pyridin-2-yl)methyl)-1H-imidazol-4-yl)phenyl)morpholine-4-carboxamide]"
99,98,> 200,65,81,0.272,"Nc1ccc(-c2nc(Cc3ccc(-c4nnc(C(F)F)o4)cc3)no2)cn1 [compound 247, 5-(3-(4-(5-(difluoromethyl)-1,3,4-oxadiazol-2-yl)benzyl)-1,2,4-oxadiazol-5-yl)pyridin-2-amine]"
98,83,> 200,79,97,0.065,"Nc1ccc(-c2cn(Cc3ccc(-c4nnc(C(F)F)o4)cc3)cn2)cn1 [compound 151, 5-(1-(4-(5-(difluoromethyl)-1,3,4-oxadiazol-2-yl)benzyl)-1H-imidazol-4-yl)pyridin-2-amine]"
99,87,> 200,0,58,0.055,"CC(=O)c1cccc(-c2nnn(Cc3ccc(-c4nnc(C(F)F)o4)cc3)n2)c1 [compound 140, 1-(3-(2-(4-(5-(difluoromethyl)-1,3,4-oxadiazol-2-yl)benzyl)-2H-tetrazol-5-yl)phenyl)ethan-1-one]"
86,52,> 200,18,93,0.038,"CCNc1ccc(-c2nnn(Cc3ccc(-c4nnc(C(F)F)o4)cc3)n2)cn1 [compound 99, 5-(2-(4-(5-(difluoromethyl)-1,3,4-oxadiazol-2-yl)benzyl)-2H-tetrazol-5-yl)-N-ethylpyridin-2-amine]"
94,88,> 200,90,86,0.098,"CC(c1ccc(-c2nnc(C(F)F)o2)c(F)c1)n1cc(-c2ccc(N)nc2)nn1 (stereo not drawn) [compound 186, 5-(1-(1-(4-(5-(difluoromethyl)-1,3,4-oxadiazol-2-yl)-3-fluorophenyl)ethyl)-1H-1,2,3-triazol-4-yl)pyridin-2-amine]"
74,72,> 200,59,79,0.036,"O=C(c1cccc(-c2nnn(Cc3ccc(-c4nnc(C(F)F)o4)cc3F)n2)c1)N1CCOCC1 [compound 93, (3-(2-(4-(5-(difluoromethyl)-1,3,4-oxadiazol-2-yl)-2-fluorobenzyl)-2H-tetrazol-5-yl)phenyl)(morpholino)methanone]"
